Measured values reported in a compilation of properties of binary mixtures (doi:10.1016/j.molliq.2020.114720).

Experiment: xn = mol fraction of the nth substance listed
Details: 101 kPa

CC(=O)[O-].CCCCC[n+]1ccccc1 + O
electrical conductivity [S/m]
Details	x1 = 0.9143	x1 = 0.9163	x1 = 0.9314	x1 = 0.948	x1 = 0.9673	x2 = 0.0023
293.15 K	0.0061	–	–	0.0049	0.0043	0.0034
298.15 K	0.0106	–	0.0094	–	0.007	0.0053
303.15 K	0.0175	0.0173	–	0.0128	0.0112	0.0081
308.15 K	0.024	–	–	0.0185	0.0162	0.0121
313.15 K	0.036	–	0.0335	0.029	0.0245	0.0179
318.15 K	0.051	–	0.0438	–	–	0.0266
323.15 K	0.071	–	0.0623	0.0532	0.0459	–
328.15 K	0.093	0.092	–	0.0715	0.061	0.045
333.15 K	–	0.125	0.111	0.095	0.0805	0.0572
338.15 K	–	0.171	0.151	–	0.109	0.0766
343.15 K	0.226	0.222	–	0.17	0.138	0.0955
